Source: patent publication US20160108008A1, “Substituted N-(Tetrazol-5-yl)- and N-(Triazol-5-yl)arylcarboxamide Compounds and Their Use as Herbicides” (BASF SE, priority 2013, published 2016)
Marks after values point to notes of the source that are not given here.

Assays:
Type in all cases: in vivo
Agrostis spica-venti = experiment: greenhouse pre-emergence treatment, APESV; settings: pre-emergence (value labeled *), scale 0-100
Description: (§1) The culture containers used were plastic flowerpots containing loamy sand with approximately 3.0% of humus as the substrate. The seeds of the test plants were sown separately for each species.
(§2) For the pre-emergence treatment, the active ingredients, which had been suspended or emulsified in water, were applied directly after sowing by means of finely distributing nozzles. The containers were irrigated gently to promote germination and growth and subsequently covered with transparent plastic hoods until the plants had rooted. This cover caused uniform germination of the test plants, unless this has been impaired by the active ingredients.
(§3) Depending on the species, the plants were kept at 10-25° C. or 20-35° C. The test period extended over 2 to 4 weeks. During this time, the plants were tended, and their response to the individual treatments was evaluated.
(§4) Evaluation was carried out using a scale from 0 to 100. 100 means no emergence of the plants, or complete destruction of at least the aerial moieties, and 0 means no damage, or normal course of growth. A good herbicidal activity is given at values of at least 70 and a very good herbicidal activity is given at values of at least 85.
(§5) The plants used in the greenhouse experiments belonged to the following species:
(§6) Following representative compounds of formula I according to Table 9 were used in post-emergence treatments in greenhouse experiments (values labeled with * result from pre-emergence experiments): […]

Amaranthus retroflexus [1] = experiment: greenhouse post-emergence treatment, AMARE; settings: scale 0-100
Description: as §1
(§7) For the post-emergence treatment, the test plants were first grown to a height of 3 to 15 cm, depending on the plant habit, and only then treated with the active ingredients which had been suspended or emulsified in water. For this purpose, the test plants were either sown directly and grown in the same containers, or they were first grown separately as seedlings and transplanted into the test containers a few days prior to treatment.
as §3, §4, §5, §6

Echinochloa crus-galli [2] = experiment: greenhouse post-emergence treatment, ECHCG; settings: scale 0-100
Description: as §1, §7, §3, §4, §5, §6

Chenopodium album = experiment: greenhouse post-emergence treatment, CHEAL; settings: scale 0-100
Description: as §1, §7, §3, §4, §5, §6

Abutilon theophrasti [3] = experiment: greenhouse pre-emergence treatment, ABUTH; settings: pre-emergence (value labeled *), scale 0-100
Description: as §1, §2, §3, §4, §5, §6

Amaranthus retroflexus [4] = experiment: greenhouse pre-emergence treatment, AMARE; settings: pre-emergence (value labeled *), scale 0-100
Description: as §1, §2, §3, §4, §5, §6

Polygonum convolvulus = experiment: greenhouse post-emergence treatment, POLCO; settings: scale 0-100
Description: as §1, §7, §3, §4, §5, §6

Setaria viridis = experiment: greenhouse post-emergence treatment, SETVI; settings: scale 0-100
Description: as §1, §7, §3, §4
(§8) The plants used in the greenhouse experiments belonged to the following species: […]

Alopecurus agrestis = experiment: greenhouse post-emergence treatment, ALOMY; settings: 250 g/ha, scale 0-100
Description: as §1, §7, §3, §4, §8

Abutilon theophrasti [5] = experiment: greenhouse post-emergence treatment, ABUTH; settings: 1000 g/ha, scale 0-100
Description: as §1, §7, §3, §4, §8

Echinochloa crus-galli [6] = experiment: greenhouse pre-emergence treatment, ECHCG; settings: pre-emergence (value labeled *), scale 0-100
Description: as §1, §2, §3, §4, §8

COCCOc1ccc(Cl)c(C(=O)Nc2nnnn2C)c1Cl [compound 86]
[%] damage to weed IV (APESV) (Agrostis spica-venti; 500 g/ha): 98* % | [%] damage to weed III (AMARE) (Amaranthus retroflexus [1]; 500 g/ha): 100% | [%] damage to weed VII (ECHCG) (Echinochloa crus-galli [2]; 500 g/ha): 98% | [%] damage to weed VI (CHEAL) (Chenopodium album; 500 g/ha): 100% | [%] damage to weed I (ABUTH) (Abutilon theophrasti [3]; 500 g/ha): 65* %

Cc1c(C(=O)Nc2ncnn2C)cc(F)cc1S(C)(=O)=O [compound 10]
[%] damage to weed III (AMARE) (Amaranthus retroflexus [4]; 250 g/ha): 95* % | [%] damage to weed III (AMARE) (Amaranthus retroflexus [1]; 250 g/ha): 100; % | [%] damage to weed IX (POLCO) (Polygonum convolvulus; 250 g/ha): 100% | [%] damage to weed VI (CHEAL) (Chenopodium album; 250 g/ha): 100%

Cn1nnnc1NC(=O)c1c(F)cc(Cl)c([S+](C)[O-])c1Cl (stereo not drawn) [cpd. 6]
[%] damage to weed XI (SETVI) (Setaria viridis; 250 g/ha): 100% | [%] damage to weed II (ALOMY) (Alopecurus agrestis): 100% | [%] damage to weed VI (CHEAL) (Chenopodium album; 250 g/ha): 100%

CSc1ccc(Cl)c(C(=O)Nc2ncnn2C)c1Cl [compound 81]
[%] damage to weed IV (APESV) (Agrostis spica-venti; 250 g/ha): 95* % | [%] damage to weed III (AMARE) (Amaranthus retroflexus [1]; 250 g/ha): 100% | [%] damage to weed VII (ECHCG) (Echinochloa crus-galli [2]; 250 g/ha): 98% | [%] damage to weed VI (CHEAL) (Chenopodium album; 250 g/ha): 100%

Cc1c(C(=O)Nc2nnnn2C)cc(F)cc1S(C)(=O)=O [compound 7]
[%] damage to weed XI (SETVI) (Setaria viridis; 500 g/ha): 100% | [%] damage to weed III (AMARE) (Amaranthus retroflexus [1]; 500 g/ha): 100% | [%] damage to weed VI (CHEAL) (Chenopodium album; 500 g/ha): 100%

CSc1c(F)cc(C(=O)Nc2nnnn2C)c(C)c1SC [compound 67]
[%] damage to weed I (ABUTH) (Abutilon theophrasti [5]): 100% | [%] damage to weed VII (ECHCG) (Echinochloa crus-galli [2]; 1000 g/ha): 100%

CC[S+]([O-])c1c(Cl)cc(F)c(C(=O)Nc2ncnn2C)c1Cl (stereo not drawn) [compound 14]
[%] damage to weed III (AMARE) (Amaranthus retroflexus [1]; 250 g/ha): 100% | [%] damage to weed IX (POLCO) (Polygonum convolvulus; 250 g/ha): 100% | [%] damage to weed VI (CHEAL) (Chenopodium album; 250 g/ha): 100% | [%] damage to weed I (ABUTH) (Abutilon theophrasti [3]; 250 g/ha): 100* %

CCOc1c(Cl)cc(F)c(C(=O)Nc2nnnn2CC)c1Cl [compound 63]
[%] damage to weed III (AMARE) (Amaranthus retroflexus [4]; 500 g/ha): 100* % | [%] damage to weed III (AMARE) (Amaranthus retroflexus [1]; 500 g/ha): 100; % | [%] damage to weed IX (POLCO) (Polygonum convolvulus; 500 g/ha): 98% | [%] damage to weed VI (CHEAL) (Chenopodium album; 500 g/ha): 100%

CCSc1c(Cl)cc(Cl)c(C(=O)Nc2ncnn2C)c1Cl [compound 61]
[%] damage to weed IV (APESV) (Agrostis spica-venti; 500 g/ha): 98* % | [%] damage to weed III (AMARE) (Amaranthus retroflexus [1]; 500 g/ha): 100% | [%] damage to weed VII (ECHCG) (Echinochloa crus-galli [2]; 500 g/ha): 98% | [%] damage to weed VI (CHEAL) (Chenopodium album; 500 g/ha): 100%

CCOc1c(Cl)cc(F)c(C(=O)Nc2ncnn2C)c1Cl [compound 17]
[%] damage to weed III (AMARE) (Amaranthus retroflexus [1]; 500 g/ha): 100% | [%] damage to weed VII (ECHCG) (Echinochloa crus-galli [2]; 500 g/ha): 98; % | [%] damage to weed VI (CHEAL) (Chenopodium album; 500 g/ha): 100% | [%] damage to weed VII (ECHCG) (Echinochloa crus-galli [6]; 500 g/ha): 85* %

COCCOc1c(Cl)cc(F)c(C(=O)Nc2ncnn2C)c1Cl [compound 69]
[%] damage to weed III (AMARE) (Amaranthus retroflexus [1]; 250 g/ha): 98% | [%] damage to weed IX (POLCO) (Polygonum convolvulus; 250 g/ha): 98% | [%] damage to weed VI (CHEAL) (Chenopodium album; 250 g/ha): 100% | [%] damage to weed I (ABUTH) (Abutilon theophrasti [3]; 250 g/ha): 100* %

CCCn1ncnc1NC(=O)c1c(F)cc(Cl)c(SC)c1Cl [compound 62]
[%] damage to weed IV (APESV) (Agrostis spica-venti; 250 g/ha): 80* % | [%] damage to weed III (AMARE) (Amaranthus retroflexus [1]; 250 g/ha): 100% | [%] damage to weed VII (ECHCG) (Echinochloa crus-galli [2]; 250 g/ha): 98% | [%] damage to weed VI (CHEAL) (Chenopodium album; 250 g/ha): 100%

CCS(=O)(=O)c1c(Cl)cc(F)c(C(=O)Nc2ncnn2C)c1Cl [compound 15]
[%] damage to weed IV (APESV) (Agrostis spica-venti; 500 g/ha): 98* % | [%] damage to weed III (AMARE) (Amaranthus retroflexus [1]; 500 g/ha): 100% | [%] damage to weed IX (POLCO) (Polygonum convolvulus; 500 g/ha): 98% | [%] damage to weed VI (CHEAL) (Chenopodium album; 500 g/ha): 100%

COCCn1nnnc1NC(=O)c1c(F)cc(Cl)c(S(C)(=O)=O)c1Cl [compound 76]
[%] damage to weed III (AMARE) (Amaranthus retroflexus [1]; 250 g/ha): 100% | [%] damage to weed VII (ECHCG) (Echinochloa crus-galli [2]; 250 g/ha): 100; % | [%] damage to weed VI (CHEAL) (Chenopodium album; 250 g/ha): 100% | [%] damage to weed VII (ECHCG) (Echinochloa crus-galli [6]; 250 g/ha): 100* %

CCSc1c(Cl)cc(F)c(C(=O)Nc2nnnn2C)c1Cl [compound 12, 2,4-dichloro-3-ethylsulfanyl-6-fluoro-N-(1-methyltetrazol-5-yl)benzamide]
[%] damage to weed III (AMARE) (Amaranthus retroflexus [1]; 250 g/ha): 100% | [%] damage to weed IX (POLCO) (Polygonum convolvulus; 250 g/ha): 100% | [%] damage to weed VI (CHEAL) (Chenopodium album; 250 g/ha): 100% | [%] damage to weed I (ABUTH) (Abutilon theophrasti [3]; 250 g/ha): 100* %

CCSc1c(Cl)cc(F)c(C(=O)Nc2ncnn2C)c1Cl [compound 11]
[%] damage to weed III (AMARE) (Amaranthus retroflexus [1]; 250 g/ha): 100% | [%] damage to weed IX (POLCO) (Polygonum convolvulus; 250 g/ha): 100% | [%] damage to weed VI (CHEAL) (Chenopodium album; 250 g/ha): 100% | [%] damage to weed I (ABUTH) (Abutilon theophrasti [3]; 250 g/ha): 100* %

CC[S+]([O-])c1c(Cl)cc(F)c(C(=O)Nc2nnnn2C)c1Cl (stereo not drawn) [compound 16, 2,4-Dichloro-3-ethylsulfinyl-6-fluoro-N-(1-methyltetrazol-5-yl)benzamide]
[%] damage to weed III (AMARE) (Amaranthus retroflexus [1]; 250 g/ha): 100% | [%] damage to weed IX (POLCO) (Polygonum convolvulus; 250 g/ha): 100% | [%] damage to weed VI (CHEAL) (Chenopodium album; 250 g/ha): 100% | [%] damage to weed I (ABUTH) (Abutilon theophrasti [3]; 250 g/ha): 100* %

Cc1c(C(=O)Nc2nnnn2C)cc(F)c(S(C)(=O)=O)c1S(C)(=O)=O [compound 66]
[%] damage to weed III (AMARE) (Amaranthus retroflexus [4]; 1000 g/ha): 100* % | [%] damage to weed I (ABUTH) (Abutilon theophrasti [5]): 100% | [%] damage to weed III (AMARE) (Amaranthus retroflexus [1]; 1000 g/ha): 100; % | [%] damage to weed VII (ECHCG) (Echinochloa crus-galli [2]; 1000 g/ha): 100%

CSc1c(F)cc(Cl)c(C(=O)Nc2ncnn2C)c1F [compound 94]
[%] damage to weed IV (APESV) (Agrostis spica-venti; 250 g/ha): 90* % | [%] damage to weed III (AMARE) (Amaranthus retroflexus [1]; 250 g/ha): 100% | [%] damage to weed VII (ECHCG) (Echinochloa crus-galli [2]; 250 g/ha): 95% | [%] damage to weed VI (CHEAL) (Chenopodium album; 250 g/ha): 100%

CCS(=O)(=O)c1c(Cl)cc(F)c(C(=O)Nc2nnnn2C)c1Cl [compound 13, 2,4-Dichloro-3-ethylsulfonyl-6-fluoro-N-(1-methyltetrazol-5-yl)benzamide]
[%] damage to weed III (AMARE) (Amaranthus retroflexus [1]; 250 g/ha): 100% | [%] damage to weed IX (POLCO) (Polygonum convolvulus; 250 g/ha): 100% | [%] damage to weed VI (CHEAL) (Chenopodium album; 250 g/ha): 100% | [%] damage to weed I (ABUTH) (Abutilon theophrasti [3]; 250 g/ha): 100* %

COCCOc1c(Cl)cc(F)c(C(=O)Nc2nnnn2C)c1Cl [compound 70]
[%] damage to weed III (AMARE) (Amaranthus retroflexus [1]; 250 g/ha): 98% | [%] damage to weed VII (ECHCG) (Echinochloa crus-galli [2]; 250 g/ha): 95% | [%] damage to weed VI (CHEAL) (Chenopodium album; 250 g/ha): 100% | [%] damage to weed I (ABUTH) (Abutilon theophrasti [3]; 250 g/ha): 100* %
